From PubChem BioAssay AID1963853 (Molecular Pharmacology Branch, DTP, NCI, 2024)

Tested on: 266295-075-R-J1-PDC spheroid viability
Assay: Anticancer human tumor 266295-075-R-J1-PDC patient-derived head and neck squamous carcinoma cell line growth inhibition [POLQ]
Conditions: spheroids with HUVEC and MSC; for IC50: curve of first compound; for viability, T/C: stronger effect = lower value; active = viability on the fitted dose curve at most 10% of control; inactive = the rest
Outline: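 Patient-derived tumour cells were co-cultured with HUVEC and mesenchymal stem cells as multicellular spheroids at 37 °C. They were treated with POLQ inhibitors (novobiocin, ART-558, RP6685) alone or combined with other agents. Top concentrations were at or near clinical Cmax (otherwise 10 microM; SN-38 at 1 microM), decreasing in half-log steps.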

[1] = second compound 0.0316 µM, first compound 0.0316 µM
[2] = second compound 0.0316 µM, first compound 0.1 µM
[3] = second compound 0.0316 µM, first compound 0.316 µM
[4] = second compound 0.0316 µM, first compound 1 µM
[5] = second compound 0.1 µM, first compound 0.0316 µM
[6] = second compound 0.1 µM, first compound 0.1 µM
[7] = second compound 0.1 µM, first compound 0.316 µM
[8] = second compound 0.1 µM, first compound 1 µM
[9] = second compound 0.316 µM, first compound 0.0316 µM
[10] = second compound 0.316 µM, first compound 0.1 µM
[11] = second compound 0.316 µM, first compound 0.316 µM
[12] = second compound 0.316 µM, first compound 1 µM
[13] = second compound 1 µM, first compound 0.0316 µM
[14] = second compound 1 µM, first compound 0.1 µM
[15] = second compound 1 µM, first compound 0.316 µM
[16] = second compound 1 µM, first compound 1 µM
[17] = second compound 3.16 µM, first compound 0.0316 µM
[18] = second compound 3.16 µM, first compound 0.1 µM
[19] = second compound 3.16 µM, first compound 0.316 µM
[20] = second compound 3.16 µM, first compound 1 µM
[21] = second compound 10 µM, first compound 0.0316 µM
[22] = second compound 10 µM, first compound 0.1 µM
[23] = second compound 10 µM, first compound 0.316 µM
[24] = second compound 10 µM, first compound 1 µM
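Also: spheroids exposed to compounds for seven days before readout.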

CC(=O)O[C@H]1C(=O)[C@@]2(C)[C@H]([C@H](OC(=O)c3ccccc3)[C@]3(O)C[C@H](OC(=O)[C@H](O)[C@@H](NC(=O)c4ccccc4)c4ccccc4)C(C)=C1C3(C)C)[C@]1(OC(C)=O)CO[C@@H]1C[C@@H]2O + COC1C(OC(N)=O)C(O)C(Oc2ccc3c(O)c(NC(=O)c4ccc(O)c(CC=C(C)C)c4)c(=O)oc3c2C)OC1(C)C
inactive: viability, T/C (second compound 0.0316 µM, first compound 0.00949 µM) 79.5% | viability, T/C (second compound 0.0316 µM, first compound 0.03 µM) 69.1% | viability, T/C (second compound 0.0316 µM, first compound 0.0949 µM) 63.3% | viability, T/C (second compound 0.0316 µM, first compound 0.3 µM) 86.2% | viability, T/C (second compound 0.0316 µM, first compound 0.949 µM) 75.6% | viability, T/C (second compound 0.0316 µM, first compound 3 µM) 71.3% | viability, T/C (second compound 0.1 µM, first compound 0.00949 µM) 92.3% | viability, T/C (second compound 0.1 µM, first compound 0.03 µM) 79% | viability, T/C (second compound 0.1 µM, first compound 0.0949 µM) 61.2% | viability, T/C (second compound 0.1 µM, first compound 0.3 µM) 73.2% | viability, T/C (second compound 0.1 µM, first compound 0.949 µM) 78.1% | viability, T/C (second compound 0.1 µM, first compound 3 µM) 69% | viability, T/C (second compound 0.316 µM, first compound 0.00949 µM) 93.6% | viability, T/C (second compound 0.316 µM, first compound 0.03 µM) 73.4% | viability, T/C (second compound 0.316 µM, first compound 0.0949 µM) 66.5% | viability, T/C (second compound 0.316 µM, first compound 0.3 µM) 67.4% | viability, T/C (second compound 0.316 µM, first compound 0.949 µM) 72.1% | viability, T/C (second compound 0.316 µM, first compound 3 µM) 81.2% | viability, T/C (second compound 1 µM, first compound 0.00949 µM) 76.9% | viability, T/C (second compound 1 µM, first compound 0.03 µM) 70% | viability, T/C (second compound 1 µM, first compound 0.0949 µM) 67.8% | viability, T/C (second compound 1 µM, first compound 0.3 µM) 80.7% | viability, T/C (second compound 1 µM, first compound 0.949 µM) 77.3% | viability, T/C (second compound 1 µM, first compound 3 µM) 65% | viability, T/C (second compound 3.16 µM, first compound 0.00949 µM) 81.9% | viability, T/C (second compound 3.16 µM, first compound 0.03 µM) 83.6% | viability, T/C (second compound 3.16 µM, first compound 0.0949 µM) 62.5% | viability, T/C (second compound 3.16 µM, first compound 0.3 µM) 75.5% | viability, T/C (second compound 3.16 µM, first compound 0.949 µM) 71.3% | viability, T/C (second compound 3.16 µM, first compound 3 µM) 75.2% | viability, T/C (second compound 10 µM, first compound 0.00949 µM) 85.6% | viability, T/C (second compound 10 µM, first compound 0.03 µM) 72.3% | viability, T/C (second compound 10 µM, first compound 0.0949 µM) 62.8% | viability, T/C (second compound 10 µM, first compound 0.3 µM) 60.5% | viability, T/C (second compound 10 µM, first compound 0.949 µM) 75.5% | viability, T/C (second compound 10 µM, first compound 3 µM) 74.7%
> 3000 nM: IC50 (second compound 0.0316 µM) | IC50 (second compound 0.1 µM) | IC50 (second compound 0.316 µM) | IC50 (second compound 1 µM) | IC50 (second compound 3.16 µM) | IC50 (second compound 10 µM)

COc1cccc(OCCCN)c1-c1cc(Nc2cnc(C#N)cn2)n[nH]1 + COC1C(OC(N)=O)C(O)C(Oc2ccc3c(O)c(NC(=O)c4ccc(O)c(CC=C(C)C)c4)c(=O)oc3c2C)OC1(C)C
inactive: viability, T/C (second compound 0.0316 µM, first compound 0.00316 µM) 87.7% | viability, T/C (second compound 0.0316 µM, first compound 0.01 µM) 81.7% | viability, T/C [1] 71.1% | viability, T/C [2] 64.2% | viability, T/C [3] 67.1% | viability, T/C [4] 71.7% | viability, T/C (second compound 0.1 µM, first compound 0.00316 µM) 109% | viability, T/C (second compound 0.1 µM, first compound 0.01 µM) 89.8% | viability, T/C [5] 84% | viability, T/C [6] 68.7% | viability, T/C [7] 65.6% | viability, T/C [8] 75.6% | viability, T/C (second compound 0.316 µM, first compound 0.00316 µM) 88.8% | viability, T/C (second compound 0.316 µM, first compound 0.01 µM) 85.4% | viability, T/C [9] 78.6% | viability, T/C [10] 70.6% | viability, T/C [11] 81.1% | viability, T/C [12] 70% | viability, T/C (second compound 1 µM, first compound 0.00316 µM) 96.7% | viability, T/C (second compound 1 µM, first compound 0.01 µM) 89.8% | viability, T/C [13] 76.4% | viability, T/C [14] 66.1% | viability, T/C [15] 72% | viability, T/C [16] 69.1% | viability, T/C (second compound 3.16 µM, first compound 0.00316 µM) 92.3% | viability, T/C (second compound 3.16 µM, first compound 0.01 µM) 96.7% | viability, T/C [17] 78.6% | viability, T/C [18] 74.3% | viability, T/C [19] 78.3% | viability, T/C [20] 76.1% | viability, T/C (second compound 10 µM, first compound 0.00316 µM) 87.6% | viability, T/C (second compound 10 µM, first compound 0.01 µM) 90.9% | viability, T/C [21] 70.4% | viability, T/C [22] 65.1% | viability, T/C [23] 66.5% | viability, T/C [24] 69.6%
> 1000 nM: IC50 (second compound 0.0316 µM) | IC50 (second compound 0.1 µM) | IC50 (second compound 0.316 µM) | IC50 (second compound 1 µM) | IC50 (second compound 3.16 µM) | IC50 (second compound 10 µM)

COc1ccc([C@@H](O)c2cc(-c3ncnc4cc(N5CCOCC5)ccc34)c(F)cc2Cl)nn1 + Nc1ccc(C#CCN(C(=O)Cc2ncc(C(F)(F)F)cc2C(F)(F)F)c2ccc(F)cc2)nn1
3240 nM: IC50 (second compound 3.16 µM)
2490 nM: IC50 (second compound 10 µM)
4850 nM: IC50 (second compound 0.316 µM)
2710 nM: IC50 (second compound 1 µM)
5250 nM: IC50 (second compound 0.0316 µM)
inactive: viability, T/C [1] 87.8% | viability, T/C [2] 91.7% | viability, T/C [3] 72.4% | viability, T/C [4] 89% | viability, T/C (second compound 0.0316 µM, first compound 3.16 µM) 59.4% | viability, T/C (second compound 0.0316 µM, first compound 10 µM) 38% | viability, T/C [5] 78.3% | viability, T/C [6] 89.7% | viability, T/C [7] 71.6% | viability, T/C [8] 73.9% | viability, T/C (second compound 0.1 µM, first compound 3.16 µM) 43.2% | viability, T/C (second compound 0.1 µM, first compound 10 µM) 40% | viability, T/C [9] 93% | viability, T/C [10] 94.9% | viability, T/C [11] 71.4% | viability, T/C [12] 75.4% | viability, T/C (second compound 0.316 µM, first compound 3.16 µM) 57.4% | viability, T/C (second compound 0.316 µM, first compound 10 µM) 37.7% | viability, T/C [13] 113% | viability, T/C [14] 120% | viability, T/C [15] 81.1% | viability, T/C [16] 71% | viability, T/C (second compound 1 µM, first compound 3.16 µM) 49.3% | viability, T/C (second compound 1 µM, first compound 10 µM) 29.6% | viability, T/C [17] 98.6% | viability, T/C [18] 109% | viability, T/C [19] 82.8% | viability, T/C [20] 65.9% | viability, T/C (second compound 3.16 µM, first compound 3.16 µM) 55% | viability, T/C (second compound 3.16 µM, first compound 10 µM) 38.2% | viability, T/C [21] 104% | viability, T/C [22] 94.2% | viability, T/C [23] 87.9% | viability, T/C [24] 61.2% | viability, T/C (second compound 10 µM, first compound 3.16 µM) 46.8% | viability, T/C (second compound 10 µM, first compound 10 µM) 42.6%
2470 nM: IC50 (second compound 0.1 µM)
